Experimental data: paper PMC9886266, “New [1,2,4]triazolo[4,3-c]quinazolines as intercalative Topo II inhibitors: Design, synthesis, biological evaluation, and in silico studies” (PLOS ONE, 2023)
Read-outs that look alike come from different tables or passages of the source.

Tests used:
HCT-116 cell line [1] = assay: MTT anti-proliferative assay, HCT-116; format: cell-based; details: Homo sapiens, 48 h, three independent experiments, read-out: In vitro cytotoxicity IC50, HCT-116
Description: (§1) In vitro antiproliferative activities of the target molecules were assessed against two human cancer cell lines namely, hepatocellular carcinoma (HepG2) and colorectal carcinoma (HCT-116) using MTT assay.
(§2) The anti-proliferative activity of the synthesized compounds was assessed using MTT assay protocol. A panel of human cancer cell lines namely, colorectal carcinoma (HCT-116) and hepatocellular carcinoma (HepG2) was used in this test. Doxorubicin was used as a positive control. The cell lines were got from ATCC (American Type Culture Collection) via the Holding company for biological products and vaccines (VACSERA, Cairo, Egypt). The anti-proliferative activities of the tested compounds were determined quantitatively as follows:
(§3) At first, the cells were cultured into a medium of RPMI-1640 with 10% fetal bovine serum. Then, two different antibiotics were added at 37°C in a 5% CO2 incubator: penicillin (100 units/mL) and streptomycin (100 μg/mL). Next, we seeded the cells in a 96-well plate by a density of 1.0 x 10^4 cells / well at 37°C for 48 h under 5% CO2. The synthesized compounds with different concentrations were applied into the cell lines and incubated for 48 h. After 48 h, 20 μl of MTT solution (5mg/mL) was added and incubated for 4 h. Then, DMSO (100 μl) was added into each well to dissolve the formed purple formazan. After that, a colorimetric assay was measured and recorded at absorbance of 570 nm using a plate reader (EXL 800, USA). The relative cell viability in percentage was calculated as (A570 of treated samples/A570 of untreated sample) X 100.
(§4) S2: Biological evaluation
(§5) S2.1. In vitro cytotoxic activity
(§6) The anti-proliferative activity of the synthesized compounds was assessed using MTT assay protocol. A panel of human cancer cell lines namely, colorectal carcinoma (HCT-116) and hepatocellular carcinoma (HepG2) was used in this test. As we targeted the DNA and Topo […]
(§7) cell lines were got from ATCC (American Type Culture Collection) via the Holding company for biological products and vaccines (VACSERA, Cairo, Egypt). The anti -proliferative activities of the tested compounds were determined quantitatively as follows:
(§8) At first, the cells were cultured into a medium of RPMI-1640 with 10% fetal bovine serum.
(§9) Then, two different antibiotics were added at 37 ᵒC in a 5% CO2 incubator: penicillin (100 units/mL) and streptomycin (100 µg/mL). Next, we seeded the cells in a 96 -well plate by a density of 1.0 x 10^4 cells / well at 37 ᵒC for 48 h under 5% CO2. The synthesized compounds with different concentrations were applied into the cell lines and incubated for 48 h. After 48 h, 20 µl of MTT solution (5mg/mL) was added and incubated for 4 h. Then, DMSO (100 µl) was added into each well to dissolve the formed purple formazan. After that, a colorimetric assay was measured and recorded at absorbance of 570 nm using a plate reader (EXL 800, USA). The relative cell viability in percentage was calculated as (A570 of treated samples/A570 of untreated sample) X 100. […]

[2] = biological target: T1, Topoisomerase II (Topo II) (Homo sapiens, UniProt P11388); assay: In vitro Topo II inhibitory assay (TopoGEN Topo II drug screening kit); format: biochemical
T1 construct: purchased TopoGEN, Inc., Columbus
T1 sequence (P11388 whole entry): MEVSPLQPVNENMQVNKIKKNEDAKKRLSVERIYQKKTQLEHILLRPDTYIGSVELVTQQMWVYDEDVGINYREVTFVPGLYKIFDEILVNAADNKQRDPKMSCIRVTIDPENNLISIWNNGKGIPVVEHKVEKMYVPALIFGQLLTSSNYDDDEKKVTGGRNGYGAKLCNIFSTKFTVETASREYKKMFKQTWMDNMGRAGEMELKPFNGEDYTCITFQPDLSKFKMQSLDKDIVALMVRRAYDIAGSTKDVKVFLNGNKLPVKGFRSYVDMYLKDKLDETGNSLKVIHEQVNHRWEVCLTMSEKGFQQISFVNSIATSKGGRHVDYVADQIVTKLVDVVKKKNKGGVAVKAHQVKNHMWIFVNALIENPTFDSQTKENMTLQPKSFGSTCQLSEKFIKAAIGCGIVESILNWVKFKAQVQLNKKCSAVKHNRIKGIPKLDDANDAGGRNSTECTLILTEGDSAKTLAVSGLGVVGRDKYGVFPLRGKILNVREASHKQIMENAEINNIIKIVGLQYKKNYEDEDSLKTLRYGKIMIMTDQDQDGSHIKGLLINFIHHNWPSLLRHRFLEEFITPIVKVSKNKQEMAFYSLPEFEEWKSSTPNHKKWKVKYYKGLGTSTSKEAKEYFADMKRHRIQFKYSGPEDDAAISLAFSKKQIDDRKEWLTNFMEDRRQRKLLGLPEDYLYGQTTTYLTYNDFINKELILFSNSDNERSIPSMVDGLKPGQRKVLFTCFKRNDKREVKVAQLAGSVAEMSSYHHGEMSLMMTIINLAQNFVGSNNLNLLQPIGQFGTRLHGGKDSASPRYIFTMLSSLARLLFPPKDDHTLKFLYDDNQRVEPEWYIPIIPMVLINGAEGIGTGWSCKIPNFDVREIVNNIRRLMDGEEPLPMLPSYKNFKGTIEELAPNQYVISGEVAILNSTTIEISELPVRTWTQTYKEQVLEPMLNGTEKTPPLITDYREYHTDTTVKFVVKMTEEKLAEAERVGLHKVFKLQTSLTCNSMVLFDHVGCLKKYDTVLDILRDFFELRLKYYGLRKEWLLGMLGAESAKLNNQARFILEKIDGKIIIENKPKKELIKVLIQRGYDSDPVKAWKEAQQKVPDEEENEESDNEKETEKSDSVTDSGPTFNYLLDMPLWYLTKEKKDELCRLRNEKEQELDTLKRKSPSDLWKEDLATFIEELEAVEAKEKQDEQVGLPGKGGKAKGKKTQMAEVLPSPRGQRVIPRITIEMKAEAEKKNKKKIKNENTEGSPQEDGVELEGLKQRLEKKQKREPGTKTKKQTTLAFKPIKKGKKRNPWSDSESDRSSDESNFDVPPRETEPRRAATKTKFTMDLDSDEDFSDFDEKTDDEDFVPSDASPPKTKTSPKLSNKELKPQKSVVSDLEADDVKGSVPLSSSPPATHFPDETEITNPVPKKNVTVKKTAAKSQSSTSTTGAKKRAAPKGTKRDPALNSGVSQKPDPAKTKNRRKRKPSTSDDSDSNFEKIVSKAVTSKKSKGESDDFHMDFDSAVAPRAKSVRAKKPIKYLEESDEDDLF
Description: The reported method described by Patra et al was applied using Topo II drug screening kit (TopoGEN, Inc., Columbus).
A typical enzyme reaction was structured to determine Topo II activity. The reaction mixture included Topo II (2 μl), substrate super coiled pHot1 DNA (0.25 μg), 50 μg/ml test compound (2 μl), and assay buffer (4 μl). To start the reaction, the mixture was allowed to incubate in 37°C for 30 min. To terminate the reaction, a mixture of 10% sodium dodecylsulphate (2 μl) and proteinase K (50 μg/mL) was added at 37°C for 15 min. then incubated for 15 min at 37°C.
(§10) After that, the DNA was run on 1% agarose gel in BioRad gel electrophoresis system for 1–2 h followed by staining with GelRedTM stain for 2 h and destained for 15 min with TAE buffer. The gel was imaged via BioRad’s Gel DocTMEZ system. Both supercoiled and linear strands DNA were incorporated in the gel as markers for DNA-Topo II intercalators. The results of IC50 values were calculated using the GraphPad Prism version 7. Each reaction was performed in duplicate, and at least three independent determinations of each IC50 were made. […]
S2.2. Measurement of topoisomerase II Activity […]
analyzed for their Topo II inhibitory activities. The reported method described by Patra et al was applied using Topo II drug screening kit (TopoGEN, Inc., Columbus).
A typical enzyme reaction was structured to determine Topo II activity. The reaction mixture included Topo II (2 µl), substrate super coiled pHot1 DNA (0.25 µg), 50 µg/ml test compound (2 µl), and assay buffer (4 µl). To start the reaction, the mixture was allowed to incubate in 37 °C for 30 min. To terminate the reaction, a mixture of 10% sodium dodecylsulphate (2 µl) and proteinase K (50 µg/mL) was added at 37 °C for 15 min. then incubated for 15 min at 37 °C.
as §10

[3] = tested on: Activated Calf Thymus DNA; assay: DNA/methyl green assay (DNA intercalation); format: binding; details: for IC50: 50% inhibition concentration of DNA/methyl green assay, read-out: DNA/Methyl green (IC50); for LogIC50 (best-fit value, DNA/Topo-II Inhibition (%) curve): log of drug concentration in uM; for LogIC50 (best-fit value, DNA/Topo-II Inhibition (%) curve) / HillSlope (best-fit value, DNA/Topo-II Inhibition (%) curve): supplement curve fit
Description: The most promising members (13a, 14a, 16, 17, 18, 19, and 20) were further investigated for their binding affinity against DNA. […] The results of DNA-binding affinities were reported in Table 1 as IC50 values calculated from the concentration-inhibition response curve.
Activated Calf Thymus DNA (Merk, Germany) was treated with methyl green (Merk, Germany), then the synthesized compounds were applied to displace the methyl green dye, producing equivalent color.
After that, the DNA was run on 1% agarose gel in BioRad gel electrophoresis system for 1–2 h followed by staining with GelRedTM stain for 2 h and destained for 15 min with TAE buffer. The gel was imaged via BioRad’s Gel DocTMEZ system. Both supercoiled and linear strands DNA were incorporated in the gel as markers for DNA-Topo II intercalators. The results of IC50 values were calculated using the GraphPad Prism version 7. Each reaction was performed in duplicate, and at least three independent determinations of each IC50 were made.
S2.3. DNA/Methyl Green Assay […]
methyl green dye method described by Burres et al. Activated Calf Thymus DNA (Merk, Germany) was treated with methyl green (Merk, Germany), then the synthesized compounds were applied to displace the methyl green dye, producing equivalent color. […]

HepG2 cell line [4] = assay: MTT anti-proliferative assay, HepG2; format: cell-based; details: Homo sapiens, 48 h, three independent experiments, read-out: In vitro cytotoxicity IC50, HepG2
Description: as §1, §2, §3, §4, §5, §6, §7, §8, §9

[5] = tested on: Activated Calf Thymus DNA; set-up: method as in PMID 32882440; details: previous work of the authors; read-out: DNA/Methyl green (IC50); cited from earlier work
[6] = biological target: T1, Topoisomerase II (Topo II); set-up: method as in PMID 32882440; details: previous work of the authors; cited from earlier work
HCT-116 cell line [7] = tested on: HCT-116 cell line; set-up: method as in PMID 32882440; details: previous work of the authors; read-out: In vitro cytotoxicity IC50, HCT-116; cited from earlier work
HepG2 cell line [8] = tested on: HepG2 cell line; set-up: method as in PMID 32882440; details: previous work of the authors; read-out: In vitro cytotoxicity IC50, HepG2; cited from earlier work

SMILES | IC50 (HCT-116 cell line [1]) | IC50 (HepG2 cell line [4]) | other results
FC(F)(F)c1nnc2c3ccccc3nc(NC3CCCCC3)n12 [Compound 19, N-Cyclohexyl-3-(trifluoromethyl)-[1,2,4]triazolo[4,3-c]quinazolin-5-amine] | 9.43 ± 0.3 µM | 8.91 ± 0.2 µM | IC50 [2]: 18.7 ± 0.9 µM; IC50 [3]: 23.6 ± 1.3 µM; LogIC50 (best-fit value, DNA/Topo-II Inhibition (%) curve) [3]: 1.373; HillSlope (best-fit value, DNA/Topo-II Inhibition (%) curve) [3]: 0.3612
Cc1ccc(-c2nnc3c4ccccc4nc(N4CCOCC4)n23)cc1 [Compound 15a, 4-(3-(p-Tolyl)-[1,2,4]triazolo[4,3-c]quinazolin-5-yl)morpholine] | 20 ± 0.4 µM | 20.4 ± 0.9 µM | –
Clc1ccc(-c2nnc3c4ccccc4nc(N4CCOCC4)n23)cc1 [Compound 15b, 4-(3-(4-Chlorophenyl)-[1,2,4]triazolo[4,3-c]quinazolin-5-yl)morpholine] | 21 ± 0.3 µM | 23.4 ± 0.9 µM | –
CCCNc1nc2ccccc2c2nnc(-c3ccc(C)cc3)n12 [Compound 11a, N-Propyl-3-(p-tolyl)-[1,2,4]triazolo[4,3-c]quinazolin-5-amine] | 8.42 ± 0.3 µM | 15.5 ± 1 µM | –
Clc1ccc(-c2nnc3c4ccccc4nc(NC4CCCCC4)n23)cc1 [Compound 14b, 3-(4-Chlorophenyl)-N-cyclohexyl-[1,2,4]triazolo[4,3-c]quinazolin-5-amine] | 17.4 ± 0.4 µM | 29.5 ± 1.2 µM | –
O=C(CSc1nnc2c3ccccc3c(=O)n(CC(=O)Nc3ccc(C(=O)O)cc3)n12)Nc1ccc(C(=O)O)cc1 [VIIa] | – | – | IC50 [5]: 48.3 ± 2.3 µM; IC50 [6]: 7.45 ± 0.44 µM; IC50 (HCT-116 cell line [7]): 2.62 ± 0.1 µM; IC50 (HepG2 cell line [8]): 3.91 ± 0.15 µM
FC(F)(F)c1nnc2c3ccccc3nc(N3CCOCC3)n12 [Compound 20, 4-(3-(Trifluoromethyl)-[1,2,4]triazolo[4,3-c]quinazolin-5-yl)morpholine] | 4.61 ± 0.2 µM | 8.34 ± 0.3 µM | IC50 [2]: 20.6 ± 0.9 µM; IC50 [3]: 34.5 ± 1.2 µM; LogIC50 (best-fit value, DNA/Topo-II Inhibition (%) curve) [3]: 1.538; HillSlope (best-fit value, DNA/Topo-II Inhibition (%) curve) [3]: 0.3425
Cc1ccc(-c2nnc3c4ccccc4nc(NCCO)n23)cc1 [Compound 12a, 2-((3-(p-Tolyl)-[1,2,4]triazolo[4,3-c]quinazolin-5-yl)amino)ethan-1-ol] | 11.9 ± 0.3 µM | 18.8 ± 1.2 µM | –
